From patent US8273775B2, “Non-steroidal brassinosteroid mimetic” (priority 2006, dated 2012)
Peptide text beside a SMILES is read from it. * marks the point of attachment. Cbz = O=C(OCc1ccccc1)*

What was measured:
[1] = tested on: BR-biosynthetic, BR signaling and BR-induced genes; assay: Real time PCR of BR pathway genes; type: in vivo, Arabidopsis thaliana; settings: 30 μM, 2 hours
Experimental: FIG. 7: Q-PCR analysis of genes involved in BR biosynthesis. WT Arabidopsis plants were treated with abrasin (indicated as I5) for 2 hours at a concentration of 30 μM and/or with CHX at a concentration of 30 μM and RNA was extracted from whole plants.
(§1) FIG. 8: A: Western Blot analysis of the BES1 protein in 35S:BES1:GFP plants treated with BL and abrasin (indicated as I5 throughout the figure) (A); MG132 with BL or abrasin (B); a time course with abrasin (C) and a concentration gradient with abrasin (D). B: Abrasin and BL induce similar transcriptional regulation of the BR pathway.
RNA was extracted with the RNeasy kit. Poly(dT) cDNA was prepared from […] of total RNA with Superscript III reverse transcriptase (Invitrogen) and quantified on an LightCycler 480 apparatus (Roche) with the SYBR Green I Master kit (Roche) according to the manufacturer's instructions. Target quantifications were performed with specific primer pairs designed with the Beacon Designer 4.0 (Premier Biosoft International). All PCRs were performed in triplicate.
The primers used to quantify gene expression levels were for BAS 1: 5′-[…]-3′ and 5′-[…]-3′; BR6Ox1: 5′-TGGCCAATCTTTGGCGAA-3′ and 5′-[…]-3′; BR6Ox2: 5′-[…]-3′ and 5′-[…]-3′; BRI1: 5′-[…]-3′ and 5′-[…]-3′; CPD: 5′-[…]-3′ and 5′-[…]-3′; DWF4: 5′-[…]-3′ and 5′-[…]-3′ ROT3: 5′-ATTGGCGCGTTCCTCAGAT-3′ and 5′-[…]-3′; BES1: 5′-[…]-3′ and 5′-[…]-3′; BIN2: 5′-[…]-3′ and 5′-[…]-3′; BSU 1: 5′-[…]-3′ and 5′-[…]-3′; BZR1: 5′-[…]-3′ and 5′-[…]-3′; CDKA1; 1: 5′-[…]-3′ and 5′-[…]-3′; EEF1α: 5′-[…]-3′ and 5′-[…]-3′; BKI1: 5′-GCTCCGGCGTCGATGA-3′ and 5′-[…]-3′.

[2] = tested on: BES1 protein in 35S:BES1:GFP plants; assay: Western blot analysis of BES1 phosphorylation state; type: in vivo, Arabidopsis thaliana
Experimental: as §1
For protein extraction, six-day-old seedlings were grown under standard conditions as described earlier on solid medium. Plants were next soaked in liquid MS-medium supplemented with the indicated compounds (concentrations and time periods as indicated in figures). Subsequently, plants were frozen in liquid nitrogen, ground and homogenized in ice-cold homogenization buffer (25 mM Tris-HCl (pH 8), 5 mM EDTA, 1 mM β-Mercapto-ethanol, 15 mM MgCl—2, 85 mM NaCl, 0.1% Tween 20, 1 protease inhibitor tablet/50 ml, Complete (Roche diagnostics, Belgium)). The homogenate was centrifuged twice (5 min, 14.000 rpm, 4° C.) in an Eppendorf Centrifuge 5417. Loading buffer was added, the samples were heated for 10 min at 95° C. and centrifuged. The samples were separated on a 12% acrylamide gel or a 4-20% gradient pre-cast gel (Bio-Rad) and blotted on nitrocellulose membranes (Hybond-C super, GE-Biosciences, UK) in 190 mM glycine and 25 mM Tris-Hcl using a mini-blotting system (Bio-Rad, USA) for 1 h. Membranes were blocked overnight at 4° C. in phosphate buffer with 0.1% Tween 20 and 5% skim milk (BD Difco, USA). For immunodetection, anti-BES1 antibodies at 1:2000 dilution and anti-GFP antibodies at 1:1000 dilution were used as primary antibody. As secondary antibody, anti-rat and anti-rabbit were used at 1:10.000 dilution. The proteins were detected by chemiluminescence (Perkin-Elmer, USA).

[3] = tested on: Arabidopsis thaliana seedlings; assay: Lateral root formation / root elongation of seedlings on agar plates; type: in vivo; settings: structural variants of abrasin
Experimental: FIG. 3: (A) Phenotypic characterization. WT plants were grown under standard conditions on agar plates. […] Left panel: control plant. Middle panel: abrasin treated plant. Right panel: BL treated plant. (B) Dose response measurements of abrasin using lateral root formation as an indicator of brassinosteroid like activity. Error bars represent standard error of the mean. […] Osram) at 22° C. Three days after germination compounds were added to the 96-well plates at a final concentration of 50 μM. Plants were screened six days after germination for brassinosteroid-related phenotypes. For further phenotypical analysis, all plants were grown on vertically oriented square plates (Greiner Labortechnik, Austria) with solid medium derived from standard Murashige and Skoog medium under the same conditions. For the hypocotyl-elongation assay, plants were grown in the dark at 22° C. under the same conditions.

C[C@@H]1C[C@@H]([C@H](O)CC2CC(=O)NC(=O)C2)C(=O)[C@@H](C)C1 [CHX, cycloheximide, reference compound]
expression of genes downstream of the BRI1 receptor [1]: able to induce some of these genes

CC(C)C[C@@H](C=O)NC(=O)[C@H](CC(C)C)NC(=O)[C@H](CC(C)C)NC(=O)OCc1ccccc1 [MG132, Z-Leu-Leu-Leu-CHO, reference compound] (Cbz-Leu-Leu-Leu-aldehyde)
total amount of BES1 protein ([2]; MG132 treatment): an increase in the total amount of BES1
BES1 phosphorylation state ([2]; addition of BL or MG132): no shift in the ratio between the phosphorylated and the dephosphorylated form is observed

O=C(O)CCC(=O)Nc1ccc(F)cn1 [fluoro derivative, 4-[(5-fluoro-2-pyridinyl)amino]-4-oxobutanoic acid]
effect on lateral root formation as indication of brassinosteroid like activity [3]: highest activity
